Drawing on patent publication US10981894B2, “Melanocortin subtype-2 receptor (MC2R) antagonists and uses thereof” (Crinetics Pharmaceuticals, Inc., priority 2018, dated 2021), this text covers Ki for 24 molecules.

Some results are limits rather than exact numbers.

In the assay the target is hMC2 receptor (Homo sapiens, UniProt Q01718). Put plainly: hMC2 membrane binding assay ([125I]ACTH (1-39) Tyr23, SPA). On the set-up: scale not given here. The settings on record: crude hMC2R membranes from CRE-bla-CHO-K1 cells expressing hMC2 receptor and hMRAP; [125I]ACTH (1-39) Tyr23 0.2 nM; 1.5 hours at room temperature; read-out: MC2R binding potency. An outline of the steps: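 Ki comes from non-linear regression of SPA scintillation counts. Displacement of 0.2 nM [125I]ACTH(1-39) Tyr23 by compound dose series (usually 0–10,000 nM final) ran 1.5 h at room temperature. Membranes came from CHO-K1 CRE-bla cells stably expressing hMC2R plus hMRAP, bead-coupled in pH 7.4 buffer with 0.2% BSA.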
Chain of hMC2 receptor (Q01718 whole entry): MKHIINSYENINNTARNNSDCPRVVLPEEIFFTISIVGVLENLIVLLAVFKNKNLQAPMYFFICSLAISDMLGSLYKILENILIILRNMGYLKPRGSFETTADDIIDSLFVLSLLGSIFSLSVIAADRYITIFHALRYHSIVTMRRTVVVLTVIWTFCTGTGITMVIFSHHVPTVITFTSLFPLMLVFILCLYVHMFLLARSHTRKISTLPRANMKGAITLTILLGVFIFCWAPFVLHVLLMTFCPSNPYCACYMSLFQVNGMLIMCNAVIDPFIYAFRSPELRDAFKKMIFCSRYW
Chain of hMC2 receptor (Q8TCY5 whole entry partner): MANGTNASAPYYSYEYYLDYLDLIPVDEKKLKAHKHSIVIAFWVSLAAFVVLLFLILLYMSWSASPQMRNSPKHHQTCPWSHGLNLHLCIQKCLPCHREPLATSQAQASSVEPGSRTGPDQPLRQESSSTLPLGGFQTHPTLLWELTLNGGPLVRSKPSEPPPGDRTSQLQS
In the case of `CCOc1ncccc1-c1ccc(N2CCN(C(=O)c3ccc(OC)nc3C(F)(F)F)C[C@H]2CC)c(C(=O)N[C@@H]2CCN(C)C2)n1` [Compound 1-239, 2′-ethoxy-5-[(2R)-2-ethyl-4-[6-methoxy-2-(trifluoromethyl)pyridine-3-carbonyl]piperazin-1-yl]-N-[(3R)-1-methylpyrrolidin-3-yl]-[2,3′-bipyridine]-6-carboxamide], the Ki is under 0.01 µM.
Consider `CCOc1ccccc1-c1ccc(N2CCN(C(=O)C3(C(F)(F)F)CCC3)C[C@H]2CC)c(C(=O)N[C@@H]2CCN(C)C2)n1` [Compound 1-344, 6-(2-ethoxyphenyl)-3-[(2R)-2-ethyl-4-[1-(trifluoromethyl)cyclobutanecarbonyl]piperazin-1-yl]-N-[(3R)-1-methylpyrrolidin-3-yl]pyridine-2-carboxamide], for which the Ki was under 0.01 µM.
As to `CCOc1ncccc1-c1ccc(N2CCN(C(=O)c3ccc(F)cc3C(F)(F)F)C[C@H]2CC)c(C(=O)NCCNC)c1F` [Compound 1-114, 3-(2-ethoxypyridin-3-yl)-6-[(2R)-2-ethyl-4-[4-fluoro-2-(trifluoromethyl)benzoyl]piperazin-1-yl]-2-fluoro-N-[2-(methylamino)ethyl]benzamide], the Ki is under 0.01 µM.
Regarding `CCOc1ncccc1-c1ccc(N2CCN(C(=O)c3ccc(Cl)cc3C(F)(F)F)C[C@H]2CC)c(C(=O)N[C@H]2CNC[C@H]2F)n1` [Compound 1-275, 5-[(2R)-4-[4-chloro-2-(trifluoromethyl)benzoyl]-2-ethylpiperazin-1-yl]-2′-ethoxy-N-[(3S,4R)-4-fluoropyrrolidin-3-yl]-[2,3′-bipyridine]-6-carboxamide], the Ki is under 0.01 µM.
For `CCOc1ncccc1-c1ccc(N2CCN(C(=O)c3ccc(Cl)cc3C(F)(F)F)C[C@H]2CC)c(C(=O)N[C@@H]2CNC[C@H]2F)n1` [Compound 1-276, 5-[(2R)-4-[4-chloro-2-(trifluoromethyl)benzoyl]-2-ethylpiperazin-1-yl]-2′-ethoxy-N-[(3R,4R)-4-fluoropyrrolidin-3-yl]-[2,3′-bipyridine]-6-carboxamide], the Ki is under 0.01 µM.
Next, `CCOc1ncccc1-c1ccc(N2CCN(C(=O)c3ccc(Cl)cc3C(F)(F)F)C[C@H]2CC)c(CNC)n1` [Compound 2-16, ({5-[(2R)-4-[4-chloro-2-(trifluoromethyl)benzoyl]-2-ethylpiperazin-1-yl]-2′-ethoxy-[2,3′-bipyridin]-6-yl}methyl)(methyl)amine]: under 0.01 µM; `CCOc1ncccc1-c1ccc(N2CCN(C(=O)c3ccc(Cl)cc3C(F)(F)F)C[C@H]2CC)c(C(=O)NC[C@@H]2CCN2)c1F` [Compound 1-112, N-{[(2S)-azetidin-2-yl]methyl}-6-[(2R)-4-[4-chloro-2-(trifluoromethyl)benzoyl]-2-ethylpiperazin-1-yl]-3-(2-ethoxypyridin-3-yl)-2-fluorobenzamide]: under 0.01 µM; `CCOc1ncccc1-c1ccc(N2CCN(C(=O)c3ccc(Cl)cc3C(F)(F)F)C[C@H]2CC)c(C(=O)N[C@@H]2CCN(C)C2)c1F` [Compound 1-199, 6-[(2R)-4-[4-chloro-2-(trifluoromethyl)benzoyl]-2-ethylpiperazin-1-yl]-3-(2-ethoxypyridin-3-yl)-2-fluoro-N-[(3R)-1-methylpyrrolidin-3-yl]benzamide]: under 0.01 µM.
With `CCOc1ncccc1-c1ccc(N2CCN(C(=O)OC(C(C)(C)C)C(F)(F)F)C[C@H]2CC)c(C(=O)N[C@@H]2CCN(C)C2)n1` (stereo partly drawn) [Compound 1-376, 1,1,1-trifluoro-3,3-dimethylbutan-2-yl (3R)-4-(2′-ethoxy-6-{[(3R)-1-methylpyrrolidin-3-yl]carbamoyl}-[2,3′-bipyridin]-5-yl)-3-ethylpiperazine-1-carboxylate], the Ki was under 0.01 µM.
Next, `CC[C@@H]1CN(C(=O)c2ccc(C(F)(F)F)cc2Cl)CCN1c1ccc(-c2ccccc2F)cc1C(=O)NCCN` [Compound 1-4, N-(2-aminoethyl)-4-[(2R)-4-[2-chloro-4-(trifluoromethyl)benzoyl]-2-ethylpiperazin-1-yl]-2′-fluoro-[1,1′-biphenyl]-3-carboxamide]: 0.01 to 0.1 µM; `CCOc1ncccc1-c1ccc(N2CCN(C(=O)c3ccc(C(F)(F)F)cc3N(C)C)C[C@H]2CC)c(C(=O)NCCN)c1` [Compound 1-107, N-(2-aminoethyl)-2-[(2R)-4-[2-(dimethylamino)-4-(trifluoromethyl)benzoyl]-2-ethylpiperazin-1-yl]-5-(2-ethoxypyridin-3-yl)benzamide]: under 0.01 µM; `CCOc1ncccc1-c1ccc(N2CCN(C(=O)c3ccc(Cl)cc3C(F)(F)F)C[C@H]2CC)c(C(=O)NC[C@H]2CCN2)c1F` [Compound 1-123, N-{[(2R)-azetidin-2-yl]methyl}-6-[(2R)-4-[4-chloro-2-(trifluoromethyl)benzoyl]-2-ethylpiperazin-1-yl]-3-(2-ethoxypyridin-3-yl)-2-fluorobenzamide]: under 0.01 µM.
Next, `CCOc1ncccc1-c1ccc(N2CCN(C(=O)c3ccc(Cl)cc3C(F)(F)F)C[C@H]2CC)c(C(=O)N[C@H]2CCNC2)c1` [Compound 1-92, 2-[(2R)-4-[4-chloro-2-(trifluoromethyl)benzoyl]-2-ethylpiperazin-1-yl]-5-(2-ethoxypyridin-3-yl)-N-[(3S)-pyrrolidin-3-yl]benzamide]: under 0.01 µM; `CCOc1ncccc1-c1ccc(N2CCN(C(=O)c3ccc(OC)nc3C(F)(F)F)C[C@H]2CC)c(C(=O)N[C@@H]2CCN(C)C2)c1F` [Compound 1-270, 3-(2-ethoxypyridin-3-yl)-6-[(2R)-2-ethyl-4-[6-methoxy-2-(trifluoromethyl)pyridine-3-carbonyl]piperazin-1-yl]-2-fluoro-N-[(3R)-1-methylpyrrolidin-3-yl]benzamide]: under 0.01 µM.
Next, `CCOc1ncccc1-c1ccc(N2CCN(C(=O)C3CCc4cccc(Cl)c43)C[C@H]2CC)c(C(=O)N[C@@H]2CCN(C)C2)n1` (stereo partly drawn) [Compound 1-382, 5-[(2R)-4-(7-chloro-2,3-dihydro-1H-indene-1-carbonyl)-2-ethylpiperazin-1-yl]-2′-ethoxy-N-[(3R)-1-methylpyrrolidin-3-yl]-[2,3′-bipyridine]-6-carboxamide]: under 0.01 µM.
Take `CCOc1ncccc1-c1ccc(N2CCN(C(=O)c3ccc(Cl)cc3C(F)(F)F)C[C@H]2CC)c(C(=O)NC[C@H]2CCN2C)n1` [Compound 1-231, 5-[(2R)-4-[4-chloro-2-(trifluoromethyl)benzoyl]-2-ethylpiperazin-1-yl]-2′-ethoxy-N-{[(2R)-1-methylazetidin-2-yl]methyl}-[2,3′-bipyridine]-6-carboxamide]: the Ki was under 0.01 µM.
As to `CCOc1ncccc1-c1ccc(N2CCN(C(=O)N3CCCC[C@H]3C(F)(F)F)C[C@H]2CC)c(C(=O)N[C@H]2CCN(C)C2)n1` [Compound 1-434, 2′-ethoxy-5-[(2R)-2-ethyl-4-[(2S)-2-(trifluoromethyl)piperidine-1-carbonyl]piperazin-1-yl]-N-[(3S)-1-methylpyrrolidin-3-yl]-[2,3′-bipyridine]-6-carboxamide], the Ki is under 0.01 µM.
Next, `CCOc1ncccc1-c1ccc(N2CCN(C(=O)c3ccc(Cl)cc3C(F)(F)F)C[C@H]2CC)c(C(=O)NC[C@@H]2CCN2C)c1F` [Compound 1-229, 6-[(2R)-4-[4-chloro-2-(trifluoromethyl)benzoyl]-2-ethylpiperazin-1-yl]-3-(2-ethoxypyridin-3-yl)-2-fluoro-N-{[(2S)-1-methylazetidin-2-yl]methyl}benzamide]: under 0.01 µM; `CCOc1ncccc1-c1ccc(N2CCN(C(=O)c3ccc(OC)cc3C(F)(F)F)C[C@H]2CC)c(C(=O)N[C@@H]2CCNC2)c1` [Compound 1-143, 5-(2-ethoxypyridin-3-yl)-2-[(2R)-2-ethyl-4-[4-methoxy-2-(trifluoromethyl)benzoyl]piperazin-1-yl]-N-[(3R)-pyrrolidin-3-yl]benzamide]: under 0.01 µM.
As to `CCOc1ncccc1-c1ccc(N2CCN(C(=O)C34CCC(CC3(F)F)C4(C)C)C[C@H]2CC)c(C(=O)N[C@@H]2CCNC2)n1` (stereo partly drawn) [Compound 1-354, 5-[(2R)-4-[2,2-difluoro-7,7-dimethylbicyclo[2.2.1]heptane-1-carbonyl]-2-ethylpiperazin-1-yl]-2′-ethoxy-N-[(3R)-pyrrolidin-3-yl]-[2,3′-bipyridine]-6-carboxamide], the Ki was under 0.01 µM.
On to `CCOc1ncccc1-c1ccc(N2CCN(C(=O)OC(C(C)(C)C)C(F)(F)F)C[C@H]2CC)c(C(=O)N[C@@H]2CCN(C)C2)n1` (single isomer, unassigned) [Compound 1-392, (2S*)-1,1,1-trifluoro-3,3-dimethylbutan-2-yl (3R)-4-(2′-ethoxy-6-{[(3R)-1-methylpyrrolidin-3-yl]carbamoyl}-[2,3′-bipyridin]-5-yl)-3-ethylpiperazine-1-carboxylate], for which the Ki was under 0.01 µM.
In the case of `CCOc1ncccc1-c1ccc(N2CCN(C(=O)c3ccc(Cl)cc3C(F)(F)F)C[C@H]2CC)c(C(=O)NCCNC)c1` [Compound 1-46, 2-[(2R)-4-[4-chloro-2-(trifluoromethyl)benzoyl]-2-ethylpiperazin-1-yl]-5-(2-ethoxypyridin-3-yl)-N-[2-(methylamino)ethyl]benzamide] it was under 0.01 µM; in that of `CCOc1ncccc1-c1ccc(N2CCN(C(=O)N3CCC[C@H]3c3ccccc3)C[C@H]2CC)c(C(=O)N[C@@H]2CCNC2)n1` [Compound 1-345, 2′-ethoxy-5-[(2R)-2-ethyl-4-[(2S)-2-phenylpyrrolidine-1-carbonyl]piperazin-1-yl]-N-[(3R)-pyrrolidin-3-yl]-[2,3′-bipyridine]-6-carboxamide], under 0.01 µM.
In the case of `CCOc1ncccc1-c1ccc(N2CCN(C(=O)c3ccc(C)cc3C(F)(F)F)C[C@H]2CC)c(C(=O)NCCN)c1` [Compound 1-59, N-(2-aminoethyl)-5-(2-ethoxypyridin-3-yl)-2-[(2R)-2-ethyl-4-[4-methyl-2-(trifluoromethyl)benzoyl]piperazin-1-yl]benzamide] it was under 0.01 µM.
